Calls of active or inactive are those of the source. The calls are words filed in the database; no cut-off is given here.
Legend:
Quadruplex DNA [1] = assay: Binding affinity to biotin-labeled human TERT G4-quadruplex DNA assessed as dissociation equilibrium binding constant by SPR analysis; assay type: nucleic-acid assay
Quadruplex DNA [2] = assay: Binding affinity to biotin-labeled human HTR G4-quadruplex DNA assessed as dissociation equilibrium binding constant by SPR analysis; assay type: nucleic-acid assay
DNA [3] = assay: Binding affinity to human TERT hairpin duplex DNA assessed as change in melting temperature by UV-visible spectrophotometry; assay type: nucleic-acid assay
Quadruplex DNA [4] = assay: Binding affinity to G-quartet terminal of human TERT G4-quadruplex DNA with parallel topology up to 20 uM by circular dichroism analysis; assay type: nucleic-acid assay
Quadruplex DNA [5] = assay: Binding affinity to human TERT G4-quadruplex DNA assessed as dissociation equilibrium binding constant by intrinsic fluorescence titration based fluorescence spectrophotometry; assay type: nucleic-acid assay
Quadruplex DNA [6] = assay: Binding affinity to biotin-labeled human TERRA G4-quadruplex RNA assessed as dissociation equilibrium binding constant by SPR analysis; assay type: nucleic-acid assay
Quadruplex DNA [7] = assay: Binding affinity to G-quartet terminal of human TERRA G4-quadruplex RNA with parallel topology up to 20 uM by circular dichroism analysis; assay type: nucleic-acid assay
DNA [8] = assay: Binding affinity to biotin-labeled duplex DNA AAAGAACTTT (unknown origin) assessed as dissociation equilibrium binding constant by SPR analysis; assay type: nucleic-acid assay
Homo sapiens [9] = species: Homo sapiens; assay: Selectivity index, ratio of Kd for human HTR G4-quadruplex DNA to Kd for human TERRA G4-quadruplex RNA by fluorescence spectrophotometry
Quadruplex DNA [10] = assay: Binding affinity to human HTR G4-quadruplex DNA assessed as change in melting temperature by UV-visible spectrophotometry; assay type: nucleic-acid assay
Quadruplex DNA [11] = assay: Binding affinity to human TERRA G4-quadruplex RNA assessed as dissociation equilibrium binding constant by fluorescence anisotropy titration based fluorescence spectrophotometry; assay type: nucleic-acid assay
Quadruplex DNA [12] = assay: Induction of parallel human TERT G4-quadruplex DNA structural changes up to 20 uM by circular dichroism analysis; assay type: nucleic-acid assay
Quadruplex DNA [13] = assay: Binding affinity to end quartet of (3+1) hybrid structure of human HTR G4-quadruplex DNA up to 20 uM by circular dichroism analysis; assay type: nucleic-acid assay
Quadruplex DNA [14] = assay: Binding affinity to human HTR G4-quadruplex DNA assessed as dissociation equilibrium binding constant by intrinsic fluorescence titration based fluorescence spectrophotometry; assay type: nucleic-acid assay
Homo sapiens [15] = species: Homo sapiens; assay: Selectivity index, ratio of Kd for biotin-labeled human HTR G4-quadruplex DNA to Kd for biotin-labeled human TERT G4-quadruplex DNA by SPR analysis
Quadruplex DNA [16] = assay: Binding affinity to human TERT G4-quadruplex DNA assessed as change in melting temperature by UV-visible spectrophotometry; assay type: nucleic-acid assay
Homo sapiens [17] = species: Homo sapiens; assay: Selectivity index, ratio of Kd for biotin-labeled human HTR G4-quadruplex DNA to Kd for biotin-labeled human TERRA G4-quadruplex RNA by SPR analysis
Quadruplex DNA [18] = assay: Induction of parallel human TERRA G4-quadruplex RNA structural changes up to 20 uM by circular dichroism analysis; assay type: nucleic-acid assay
Quadruplex DNA [19] = assay: Induction of (3+1) hybrid structural changes of human HTR G4-quadruplex DNA to antiparallel structure at 20 uM by circular dichroism analysis; assay type: nucleic-acid assay
Homo sapiens [20] = species: Homo sapiens; assay: Selectivity index, ratio of Kd for human HTR G4-quadruplex DNA to Kd for human TERT G4-quadruplex DNA by intrinsic fluorescence titration based fluorescence spectrophotometry

Kd (Quadruplex DNA [1]) [nM] | Kd (Quadruplex DNA [2]) [nM] | ΔTm (DNA [3]) [°C] | Activity (Quadruplex DNA [4]) | Kd (Quadruplex DNA [5]) [nM] | Kd (Quadruplex DNA [6]) [nM] | Activity (Quadruplex DNA [7]) | Kd (DNA [8]) [nM] | Selectivity Index (Homo sapiens [9]) | ΔTm (Quadruplex DNA [10]) [°C] | Kd (Quadruplex DNA [11]) [nM] | Activity (Quadruplex DNA [12]) | Activity (Quadruplex DNA [13]) | Kd (Quadruplex DNA [14]) [nM] | Selectivity Index (Homo sapiens [15]) | ΔTm (Quadruplex DNA [16]) [°C] | Selectivity Index (Homo sapiens [17]) | Activity (Quadruplex DNA [18]) | Activity (Quadruplex DNA [19]) | Selectivity Index (Homo sapiens [20]) | Compound
12 | 82 | 2 | Active | 16 | 4 | Active | > 100 | 5 | 5 | 3 | inactive | Active | 94 | 7 | 13 | 5 | inactive | Active |  | O=C1c2ccc3c4c(c(NCCN5CCCC5)cc(c24)C(=O)N1CCCN1CCOCC1)C(=O)N(CCCN1CCOCC1)C3=O
4 | 28 | 2 | Active | 4 | 3 | Active | > 100 | 5 | 10 | 2 | inactive | Active | 29 |  | 18 | 5 | inactive | Active | 5 | O=C1c2cc(-c3ccc(CN4CCCC4)cc3)c3c4c(cc(NCCN5CCCC5)c(c24)C(=O)N1CCCN1CCOCC1)C(=O)N(CCCN1CCOCC1)C3=O [QN-302]
2 | 5 | < 2 | Active | 4 | 3 | Active |  |  | 11 | 2 | inactive | Active | 10 |  |  |  | inactive | Active |  | CN1CCN(CCCNc2cc3c4c(c(NCCCN5CCN(C)CC5)cc5c4c2C(=O)N(CCCN2CCOCC2)C5=O)C(=O)N(CCCN2CCOCC2)C3=O)CC1

Source: ChEMBL document CHEMBL4613317, “Substituted Naphthalenediimide Compounds Bind Selectively to Two Human Quadruplex Structures with Parallel Topology” (ACS Med Chem Lett, 2020)
